Test results: the supplement of paper PMC10011410
± gives the standard deviation of the averaged measurements.

How the values were obtained:
[1] = system: U-2 OS; experiment: cell painting activity score (Mahalanobis distance from DMSO wells); higher = stronger morphological phenotype; conditions: 24 h
Procedure: (§1)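 Cell painting in U-2 OS cells (384-well, about 1,500 cells per well), compound exposure 24 h, usually six 2-fold concentrations from 20 to 0.625 uM (some compounds higher or lower). Relative cell count is the cell number per well relative to DMSO wells. Activity score is the Mahalanobis distance of the morphological profile from DMSO control wells. Mean of four technical replicate plates.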

[2] = system: U-2 OS; experiment: relative cell count vs DMSO (cell painting) (fraction of DMSO control); higher = more cells remaining (less cytotoxic); conditions: 24 h
Procedure: as §1

[3] = system: U-2 OS; experiment: AUC of culture confluence over time (live-cell imaging) (AUC (confluence % x time)); higher = more confluent culture (less growth inhibition)
Procedure: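 Live-cell Incucyte imaging of U-2 OS cells in F-12K medium. Compounds were tested mostly at 5, 10 and 20 uM, and cells were imaged every 4 h for up to 60 h. Value is the area under the curve of phase-contrast confluence over time.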

| SMILES | cell painting activity score ([1]; 0.625 µM) | cell painting activity score ([1]; 1.25 µM) | cell painting activity score ([1]; 2.5 µM) | cell painting activity score ([1]; 5 µM) | cell painting activity score ([1]; 10 µM) | cell painting activity score ([1]; 20 µM) | relative cell count ([2]; 0.625 µM) | relative cell count ([2]; 1.25 µM) | relative cell count ([2]; 2.5 µM) | relative cell count ([2]; 5 µM) | relative cell count ([2]; 10 µM) | relative cell count ([2]; 20 µM) | AUC of culture confluence over time ([3]; 5 µM) | AUC of culture confluence over time ([3]; 10 µM) | AUC of culture confluence over time ([3]; 20 µM) | cell painting activity score ([1]; 0.019532 µM) | cell painting activity score ([1]; 0.07812 µM) | cell painting activity score ([1]; 0.3124 µM) | relative cell count ([2]; 0.019532 µM) | relative cell count ([2]; 0.07812 µM) | relative cell count ([2]; 0.3124 µM) | AUC of culture confluence over time ([3]; 1.25 µM) |
| --- | --- | --- | --- | --- | --- | --- | --- | --- | --- | --- | --- | --- | --- | --- | --- | --- | --- | --- | --- | --- | --- | --- |
| Nc1c[n+](N2CCOCC2)no1.[Cl-] | 6.05 | 6.1 | 9.31 | 10.9 | 12.9 | 15.2 | 0.896 | 0.814 | 0.739 | 0.578 | 0.503 | 0.489 | 49.4 | 49.9 | 48.7 | – | – | – | – | – | – | – |
| CC(C)(C)C(=O)OCOc1cccc2c1C(=O)C1C3C=CC(CC3)C1C2=O (stereo not given) | 5.7 | 6.22 | 7.75 | 8.44 | 12.8 | 13.5 | 0.973 | 0.963 | 0.986 | 0.929 | 0.787 | 0.554 | 37.6 | 26.3 | 20 | – | – | – | – | – | – | – |
| C[C@H]1O[C@@H](O[C@H]2CC[C@@]3(C)[C@@H](CC[C@]4(C)[C@@H]3C=C[C@]35OC[C@@]6(CCC(C)(C)C[C@H]63)[C@@H](O)C[C@]54C)[C@]2(C)CO)[C@H](O)[C@@H](O[C@@H]2O[C@H](CO)[C@@H](O)[C@H](O)[C@H]2O)[C@H]1O | 5.15 | 6.79 | 10.6 | 9.69 | 27.5 | 29.4 | 0.96 | 0.765 | 0.155 | 0.3 | 0.0734 | 0.0918 | 35.7 | 16.7 | 15.5 | – | – | – | – | – | – | – |
| Cc1ccc(C(=O)N(CCCN)[C@@H](c2oc3cc(Cl)ccc3c(=O)c2Cc2ccccc2)C(C)C)cc1.Cl | 13.7 | 13 | 14 | 13.6 | 25.2 | 22 | 0.217 | 0.248 | 0.234 | 0.222 | 0.0425 | 0.029 | 20.2 | 15.1 | 11.9 | – | – | – | – | – | – | – |
| Oc1cc(O)cc(/C=C/c2ccc(O)c(O)c2)c1 | 3.37 | 3.39 | 4.93 | 8.04 | 10.9 | 13.7 | 1.06 | 1.01 | 0.995 | 0.951 | 0.958 | 0.886 | 49.3 | 53.9 | 45.4 | – | – | – | – | – | – | – |
| C=C1[C@@H](C)[C@H]2[C@H](Cc3ccccc3)NC(=O)[C@]23OC(=O)/C=C/[C@H](O)CCC[C@@H](C)C/C=C/[C@H]3[C@@H]1O | 9.61 | 11.2 | 9.71 | 10.7 | 12 | 16.1 | 0.968 | 0.954 | 0.865 | 0.715 | 0.722 | 0.667 | 29 | 26.1 | 26.1 | – | – | – | – | – | – | – |
| CC[C@@]1(O)C(=O)OCc2c1cc1n(c2=O)Cc2cc3ccccc3nc2-1 | – | 12.4 ± 0.52 | – | 13.7 ± 0.32 | – | 15.5 ± 0.56 | – | 0.476 ± 0.059 | – | 0.379 ± 0.037 | – | 0.351 ± 0.028 | 19.7 | – | 21.5 | 7.71 ± 3.2 | 9.83 ± 1.2 | 10.3 ± 0.47 | 0.694 ± 0.18 | 0.516 ± 0.026 | 0.503 ± 0.036 | 19.5 |
| C[C@@H]1Cc2c(Cl)cc(C(=O)N[C@@H](Cc3ccccc3)C(=O)O)c(O)c2C(=O)O1 | 3.03 | 4 | 4.76 | 5.78 | 10.6 | 16.6 | 1 | 0.998 | 0.979 | 0.954 | 0.805 | 0.503 | 40.8 | 30.3 | 17.7 | – | – | – | – | – | – | – |
